{"source": "patent US9359196B2", "about": "“Antiproliferative compositions comprising curcumin analogs and methods of producing and using same” (The Board of Regents of the University of Oklahoma, priority 2009, dated 2016)", "key": {"H441 cells [1]": {"tested_on": "H441 cells", "assay": "Transmission electron microscopy of treated H441 cells (autophagy)", "type": "cell-based, human", "conditions": "24 hour treatment, 1 and 10 μM", "method": "Transmission Electron Microscopy (TEM): TEM was performed after 24 hour treatment with 1 and 10 μM of compound 1 or compound 29 (CLEFMA). The cells were fixed in 0.1M sodium cacodylate buffer containing 4% paraformaldehyde (PFA) and 2% glutaraldehyde for 4 h at room temperature. The samples were post-fixed in 1% osmium tetroxide for 1.5 h and washed with 0.1M sodium cacodylate buffer, followed by dehydration in an ethanol series of 50%, 60%, 75%, 85%, and 95% for 15 minutes each. The cells were washed twice in 100% Ethanol and passed through a series of epon-araldite (6.2 g epon+4.4 g araldite+12.4 g of dodecenyl succinic anhydride+0.8 g N,N-dimethylbenzylamine) solution in ethanol, [Matsko et al., 2005] before embedding the cells in epon-araldite resin. Finally, 100 nm sections were cut using a microtome, and the sections were placed on glow-discharged 300 mesh Copper grids. The ultrasections were stained with Sato's lead (mixture of calcinated lead citrate, lead nitrate, lead acetate and sodium citrate), and observed by a Hitachi H-7600 Transmission Electron Microscope at 2500× (Oklahoma Medical Research Foundation Imaging and core facility, Oklahoma City)."}, "[2]": {"tested_on": "lung adenocarcinoma cell line H441", "assay": "Cell proliferation (hexosaminidase assay) in lung adenocarcinoma H441 cells, Example 1", "type": "cell-based, human", "conditions": "Homo sapiens, NCI-H441, 24 h of treatment, 1-100 μM tested, fitted plot, read-out: IC50 value", "method": "Cell Proliferation Studies: In order to assess the anti-proliferative activity of the synthesized compounds, an in vitro cell culture system of lung adenocarcinoma cell line H441 was used. The cell detachment and anti-proliferative activity was measured as a decrease in hexosaminidase enzyme activity associated with remainder of the adhered cells. [Landegren, 1984] […] The concentration versus cell proliferation plots were analyzed by an exponential fit (Table 1). The results were compared with the anti-proliferative activity of compound 1.\nCell Culture and drug treatment: Human lung adenocarcinoma cell line NCI-H441 (ATCC Number: HTB-174) was obtained from the American Type Culture Collection (Manassas, Va.). H441 cells were maintained at 37° C. with 5% CO2 in McCoy's 5A Medium (Invitrogen, Carlsbad, Calif.) supplemented with 5% heat-inactivated fetal bovine serum (FBS). All media contained gentamicin at 50 μg/ml (GIBCO Laboratories, Grand Island, N.Y.). Other cells lines (PANC-1, MiaPaCa-2 and PC-3) were also similarly maintained, except that the cell culture medium was RPMI 1640 instead of McCoy's.\nTo evaluate the anti-proliferative activity of synthesized bis(2-fluorobenzylidene)-4-piperidone and its derivatives, the cells were seeded in 96-well flat-bottom tissue culture plates at a density of 10×10^3 cells per well. The cells were allowed to attach and grow overnight. The test compounds were solubilized in dimethyl sulfoxide (DMSO), filtered through 0.2 μm nylon filter and added to cells at 1, 10, 25 and 100 μM concentrations in culture medium supplemented with 5% FBS. The DMSO concentration was maintained at 0.1% per well. Control wells received equivalent volume of DMSO without any test compounds. The cells were allowed to remain in the treatment medium for 24, 48 and 72 hours.\nCell Proliferation: The total number of cells after the treatment period was estimated by the hexosaminidase assay. [Landegren, 1984] Briefly, the medium was removed and hexosaminidase substrate solution in citrate buffer pH 5 (7.5 mM), […] (Calbiochem, San Diego, Calif.) was added at 60 μl per well. The plate was incubated at 37° C. in 100% humidity for 30 minutes, before stopping the reaction with 90 μl of 50 mM glycine containing 5 mM of EDTA (pH 10.4). The absorbance was measured at 405 nm. The experiments were conducted in triplicate, and repeated at least twice. The data were analyzed as percent of control, where the control wells were treated with equivalent amounts of DMSO alone, and the analyzed data was presented as average±standard error of mean. The differences among mean values were deemed significant at p<0.05.\nFor IC50 calculations, a plot between the drug concentration and hexosaminidase activity was generated and the data was fitted either linearly or exponentially. The best fit was used for further processing of data."}, "H441 cells [3]": {"tested_on": "H441 cells", "assay": "Monodansylcadaverine fluorescence microscopy of autophagosomes in H441 cells", "type": "cell-based, human", "method": "Monodansylcadaverine (MDC) is an autofluorescent marker for autophagic vacuoles. [Biederbick et al., 1995] It was found the emergence of intense MDC-fluorescence in the treated cells. The fluorescence vanished when the cells were treated with 3-methyl adenine (3-MA). […] [Seglen et al., 1982]"}, "Solubility in solvents": {"assay": "Solubility in solvents", "type": "physicochemical", "source_text": "The goal was to synthesize compounds that can be inserted into lipid carriers, such as liposomes. […] The retention of activity by compounds with 12-14 carbon unsaturated a chain modification is encouraging, for it enables the incorporation of these compounds in a lipid carrier system. […] This appears to be the first report where piperidinyl nitrogen of chalcones has been modified with lipid chains."}, "[4]": {"tested_on": "Human lung adenocarcinoma cell line NCI-H441", "assay": "In vitro anti-proliferative activity in H441 cells (hexosaminidase), Example 2", "type": "cell-based", "method": "Human lung adenocarcinoma cell line NCI-H441 (ATCC # HTB-174) and normal lung fibroblasts LL-24 (ATCC #CCL-151) were obtained from American Type Culture Collection (Manassas, Va.). The cells were maintained at 37° C. with 5% CO2 in RPMI 1640 medium (Invitrogen, Carlsbad, Calif.). The medium was supplemented with 10% heat-inactivated fetal bovine serum and 50 μg/ml of gentamicin (GIBCO Laboratories, Grand Island, N.Y.). For cell proliferation assay, the cells were seeded in 96-well flat-bottom tissue culture plates at a density of 0.5−1×10^4 cells per well. The cells were allowed to adhere and grow overnight, followed by treatment with CLEFMA or CLEFMA-liposomes. The concentration of CLEFMA was maintained in the range of 0.1-25 μM in 100 μl of RPMI 1640 medium. For comparison, the cells were also treated with 1 and 10 μM natural curcumin and EF24. EF24 is a potent synthetic curcuminoid and a close analog of CLEFMA [Adams et al., 2004]. All solutions of plain drugs were made in dimethylsulfoxide (DMSO). The concentration of DMSO in the treatment medium was maintained at 0.1%. The control wells received equivalent amounts of DMSO or phospholipid-matched control liposomes. Inhibition of cell proliferation was determined by measuring a decrease in hexosaminidase activity as described by Landegren [Landegren, 1984]. Para-nitrophenol-N-acetyl-beta-D-glucosaminide (60 μl per well) was used as the substrate for the hexosaminidase enzyme. The results of hexosaminidase assay were also confirmed by visualization of cultured cells under a microscope."}}, "note": "pIC50: −log10 of the molar value."}
{"smiles": "O=C1C(=Cc2ccccc2F)CNCC1=Cc1ccccc1F", "note": "[Compound 1, 3,5-Bis(2-fluorobenzylidene)-4-piperidone, reference compound]", "values": [{"measurement": "change in cellular architecture (TEM)", "setting": "H441 cells [1]", "result": "induced a substantial change in cellular architecture"}, {"measurement": "pIC50", "setting": "[2]", "result": 4.36}, {"measurement": "autophagosome formation (MDC fluorescence)", "setting": "H441 cells [3]", "result": "appearance of intracellular vacuoles or autophagosomes"}]}
{"smiles": "CCCCCCCCCCCCCCCCCC(=O)N1CC(=Cc2ccccc2F)C(=O)C(=Cc2ccccc2F)C1", "note": "[Compound 25, 3,5-Bis-(2-fluorobenzylidene)-1-octadecanoyl-4-piperidone]", "values": [{"measurement": "melting point", "result": "70 to 71", "unit": "°C"}, {"measurement": "solubility in solvents", "setting": "Solubility in solvents", "result": "insoluble in all common solvents except chloroform"}]}
{"smiles": "N[C@@H](CCC(=O)N[C@@H](CS)C(=O)NCC(=O)O)C(=O)O", "note": "[Glutathione, glutathione]", "values": [{"measurement": "anti-proliferative activity in H441 cells", "setting": "[4]", "result": "not anti-proliferative by itself"}]}
